As a reminder, the pIC50 is −log10 of the IC50, conventionally taken in molar units.

The values below come from US10189788B2, “Substituted N,2-diarylquinoline-4-carboxamides and the use thereof as anti-inflammatory agents” (BAYER PHARMA AKTIENGESELLSCHAFT, priority 2014, dated 2019).

Each structure is given as a SMILES string. pIC50: −log10 of the molar value.

Assay [1] has as its target T1, Human FP Receptor (Homo sapiens (Human), UniProt P43088). Briefly: In vitro test of inhibition of human FP receptor activity, variant B-1A (PGF2α-induced calcium flux in FP-expressing CHEM1 cells). The following applies: calcium flux induced by 3 nM PGF2α, Fluo-8, some mean values from multiple determinations. In kind it is cell-based. The text has this:
• BSA bovine serum albumin • CRTH2 chemoattractant receptor-homologous molecule expressed on T helper type 2 cells • DMEM Dulbecco's modified Eagle's medium • DMSO dimethyl sulfoxide • DP PGD2 receptor • EC50 half-maximum effective concentration • em. emission • EP PGE2 receptor • ex. excitation • FCS fetal calf serum • FP PGF2α receptor • HEPES 2-[4-(2-hydroxyethyl)piperazin-1-yl]ethanesulfonic acid • IC50 half-maximum inhibitory concentration • IP PGI2 receptor • MES 2-(N-morpholino)ethanesulfonic acid • Pen/Strep penicillin/streptomycin • PGD2 prostaglandin D2 • PGE2 prostaglandin E2 • PGF2α prostaglandin F2α • PGI2 prostaglandin […] • TC tissue culture • TP thromboxane A2 receptor • Tris tris(hydroxymethyl)aminomethane • v/v volume to volume ratio (of a solution) • w/w weight to weight ratio (of a solution) B-1.
A general note: Calcium flux is commonly read through the fluorescence of an indicator in the cells.

In assay [2] the target is T1, Human FP Receptor. The assay is described as follows: In vitro test of inhibition of human FP receptor activity, variant B-1B (PGF2α-induced calcium flux in recombinant FP-expressing CHO cells with GCaMP6). The conditions noted are these: recombinant FP-expressing CHO cells with GCaMP6, calcium flux induced by 3 nM PGF2α, some mean values from multiple determinations. In kind it is cell-based. The text has this:
470 nm/em. 525 nm in a fluorescence measuring instrument (FLIPR Tetra®, MolecularDevices) for 120 seconds.

T1 sequence (P43088 whole entry): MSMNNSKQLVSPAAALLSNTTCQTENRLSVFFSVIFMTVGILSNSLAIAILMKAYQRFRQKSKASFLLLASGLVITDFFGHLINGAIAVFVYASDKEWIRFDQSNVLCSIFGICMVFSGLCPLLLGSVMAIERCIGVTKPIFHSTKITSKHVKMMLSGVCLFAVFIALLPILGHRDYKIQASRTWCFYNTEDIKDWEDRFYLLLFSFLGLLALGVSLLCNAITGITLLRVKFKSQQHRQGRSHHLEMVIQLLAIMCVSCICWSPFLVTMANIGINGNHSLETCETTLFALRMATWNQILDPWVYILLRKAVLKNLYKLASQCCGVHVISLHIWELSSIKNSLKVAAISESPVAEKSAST

Take `Cc1c(-c2ccccc2)nc2ccc(Br)cc2c1C(=O)Nc1ccc(C(=O)O)cc1F` [Example 7, 4-{[(6-Bromo-3-methyl-2-phenylquinolin-4-yl)carbonyl]amino}-3-fluorobenzoic acid]: the pIC50 in assay [1] is 7.70; in assay [2] it was 7.47.

On to `Cc1c(-c2ccccc2)nc2cc(Cl)c(Br)cc2c1C(=O)Nc1ccc(C(=O)O)cc1F` [Example 41, 4-{[(6-Bromo-7-chloro-3-methyl-2-phenylquinolin-4-yl)carbonyl]amino}-3-fluorobenzoic acid], for which the pIC50 in assay [1] was 7.60.

With `Cc1c(-c2ccccc2)nc2cc(Cl)c(Cl)cc2c1C(=O)Nc1ccc(C(=O)O)cc1F` [Example 42, 4-{[(6,7-Dichloro-3-methyl-2-phenylquinolin-4-yl)carbonyl]amino}-3-fluorobenzoic acid], the pIC50 in assay [1] is 7.48.

For the molecule `Cc1c(-c2ccc(F)cc2)nc2ccc(Br)cc2c1C(=O)Nc1ccc(C(=O)O)cc1F` [Example 43, 4-({[6-Bromo-2-(4-fluorophenyl)-3-methylquinolin-4-yl]carbonyl}amino)-3-fluorobenzoic acid], the pIC50 in assay [1] is 7.28.

For `Cc1c(-c2cccc(F)c2)nc2ccc(Br)cc2c1C(=O)Nc1ccc(C(=O)O)cc1F` [Example 44, 4-({[6-Bromo-2-(3-fluorophenyl)-3-methylquinolin-4-yl]carbonyl}amino)-3-fluorobenzoic acid], the pIC50 in assay [1] was 7.48.

As to `Cc1c(-c2ccccc2F)nc2ccc(Br)cc2c1C(=O)Nc1ccc(C(=O)O)cc1F` [Example 45, 4-({[6-Bromo-2-(2-fluorophenyl)-3-methylquinolin-4-yl]carbonyl}amino)-3-fluorobenzoic acid], the pIC50 in assay [1] is 6.69.

For the molecule `Cc1c(-c2ccccc2)nc2ccc(Br)cc2c1C(=O)Nc1ccc(C(N)=O)cc1` [Example 47, 6-Bromo-N-(4-carbamoylphenyl)-3-methyl-2-phenylquinoline-4-carboxamide], the pIC50 in assay [1] was 6.71.

In the case of `Cc1c(-c2ccccc2)nc2ccc(Br)cc2c1C(=O)Nc1ccc(C(N)=O)cc1F` [Example 48, 6-Bromo-N-(4-carbamoyl-2-fluorophenyl)-3-methyl-2-phenylquinoline-4-carboxamide], the pIC50 in assay [1] is 6.99.

On to `Cc1c(C(=O)Nc2ccc(C(=O)O)cc2F)c2cc(Br)ccc2[n+]([O-])c1-c1ccccc1` [Example 49, 4-{[(6-Bromo-3-methyl-1-oxido-2-phenylquinolin-4-yl)carbonyl]amino}-3-fluorobenzoic acid], for which the pIC50 in assay [1] was 6.92.

`Cc1c(-c2ccccc2)nc2ccc(Br)cc2c1C(=O)Nc1ccc(C(=O)O)cc1F` [Example 50, Sodium 4-{[(6-bromo-3-methyl-2-phenylquinolin-4-yl)carbonyl]amino}-3-fluorobenzoate]: the pIC50 is 7.43 in assay [1] and 7.36 in assay [2].

Regarding `COCSc1cc(C(=O)O)ccc1NC(=O)c1c(C)c(-c2ccccc2)nc2ccc(Br)cc12` [Example 52, 4-{[(6-Bromo-3-methyl-2-phenylquinolin-4-yl)carbonyl]amino}-3-[(methoxymethyl)sulfanyl]benzoic acid], the pIC50 is 7.77 in assay [1] and 8.22 in assay [2].

As for `Cc1c(-c2ccccc2)nc2ccc(Br)cc2c1C(=O)Nc1ccc(C(=O)O)cc1S(=O)(=O)C(F)(F)F` [Example 53, 4-{[(6-Bromo-3-methyl-2-phenylquinolin-4-yl)carbonyl]amino}-3-[(trifluoromethyl)sulfonyl]benzoic acid], the pIC50 in assay [1] was 7.51.

For `Cc1c(C(=O)Nc2ccc(C(=O)O)cc2SC(F)(F)F)c2cc(Br)ccc2[n+]([O-])c1-c1ccccc1` [Example 54, 4-{[(6-Bromo-3-methyl-1-oxido-2-phenylquinolin-4-yl)carbonyl]amino}-3-[(trifluoromethyl)sulfanyl]benzoic acid], in assay [1], the pIC50 was 6.99.

For the molecule `Cc1c(-c2ccccc2)nc2ccc(Br)c(Cl)c2c1C(=O)Nc1ccc(C(=O)O)cc1F` [Example 55, 4-{[(6-Bromo-5-chloro-3-methyl-2-phenylquinolin-4-yl)carbonyl]amino}-3-fluorobenzoic acid], in assay [1], the pIC50 was 7.31.

As to `CNC(=O)c1ccc(NC(=O)c2c(C)c(-c3ccccc3)nc3ccc(Br)cc23)c(F)c1` [Example 56, 6-Bromo-N-[2-fluoro-4-(methylcarbamoyl)phenyl]-3-methyl-2-phenylquinoline-4-carboxamide], the pIC50 in assay [1] was 6.55.

In the case of `O=C(O)c1ccc(NC(=O)c2c(C(F)(F)F)c(-c3ccccc3)nc3ccc(Br)cc23)c(F)c1` [Example 57, 4-({[6-Bromo-2-phenyl-3-(trifluoromethyl)quinolin-4-yl]carbonyl}amino)-3-fluorobenzoic acid], the pIC50 in assay [1] is 6.36.

As for `Cc1c(-c2ccccc2)nc2c(C)cc(Br)cc2c1C(=O)Nc1ccc(C(=O)O)cc1` [Example 58, 4-{[(6-Bromo-3,8-dimethyl-2-phenylquinolin-4-yl)carbonyl]amino}benzoic acid], in assay [1], the pIC50 was 6.25.

On to `Cc1c(-c2ccccc2)nc2ccc(Cl)cc2c1C(=O)Nc1ccc(C(=O)O)cc1F` [Example 59, 4-{[(6-Chloro-3-methyl-2-phenylquinolin-4-yl)carbonyl]amino}-3-fluorobenzoic acid], for which, in assay [1], the pIC50 is 6.69.

Regarding `COCS(=O)(=O)c1cc(C(=O)O)ccc1NC(=O)c1c(C)c(-c2ccccc2)nc2ccc(Br)cc12` [Example 60, 4-{[(6-Bromo-3-methyl-2-phenylquinolin-4-yl)carbonyl]amino}-3-[(methoxymethyl)sulfonyl]benzoic acid], the pIC50 in assay [1] was 7.57.

For `Cc1c(-c2ccccc2)nc2ccc(C(C)(C)C)cc2c1C(=O)Nc1ccc(C(=O)O)cc1F` [Example 61, 4-{[(6-tert-Butyl-3-methyl-2-phenylquinolin-4-yl)carbonyl]amino}-3-fluorobenzoic acid], the pIC50 in assay [1] was 6.88; in assay [2] it was 7.10.

Take `O=C(O)c1cc(F)c(NC(=O)c2c(C(F)(F)F)c(-c3ccccc3)nc3ccc(Br)cc23)c(Br)c1` [Example 62, 3-Bromo-4-({[6-bromo-2-phenyl-3-(trifluoromethyl)quinolin-4-yl]carbonyl}amino)-5-fluorobenzoic acid]: in assay [1], the pIC50 is 6.52.

On to `Cc1c(-c2ccccc2)nc2ccc(S(F)(F)(F)(F)F)cc2c1C(=O)Nc1ccc(C(=O)O)cc1F` [Example 63, 3-Fluoro-4-({[3-methyl-6-(pentafluoro-λ^6-sulfanyl)-2-phenylquinolin-4-yl]carbonyl}amino)benzoic acid], for which the pIC50 in assay [1] is 6.61.

`Cc1c(-c2ccccc2)nc2ccc(C(F)F)cc2c1C(=O)Nc1ccc(C(=O)O)cc1F` [Example 64, 4-({[6-(Difluoromethyl)-3-methyl-2-phenylquinolin-4-yl]carbonyl}amino)-3-fluorobenzoic acid]: in assay [1], the pIC50 is 6.44.

Regarding `Cc1c(-c2ccccc2)nc2ccc(Br)cc2c1C(=O)Nc1ccc(C(=O)O)c(F)c1F` [Example 65, 4-{[(6-Bromo-3-methyl-2-phenylquinolin-4-yl)carbonyl]amino}-2,3-difluorobenzoic acid], the pIC50 was 6.98 in assay [1] and 7.22 in assay [2].

With `Cc1c(-c2ccccc2)nc2ccc(Br)cc2c1C(=O)Nc1cc(F)c(C(=O)O)cc1F` [Example 66, 4-{[(6-Bromo-3-methyl-2-phenylquinolin-4-yl)carbonyl]amino}-2,5-difluorobenzoic acid], the pIC50 in assay [1] is 6.55.

For the molecule `Cc1c(-c2ccccc2)nc2ccc(Br)cc2c1C(=O)Nc1ccc(C(=O)NS(=O)(=O)C(F)(F)F)cc1F` [Example 67, 6-Bromo-N-(2-fluoro-4-{[(trifluoromethyl)sulfonyl]carbamoyl}phenyl)-3-methyl-2-phenylquinoline-4-carboxamide], the pIC50 in assay [1] was 6.62; in assay [2] it was 6.87.

In the case of `O=C(O)c1ccc(NC(=O)c2c(F)c(-c3ccccc3)nc3ccc(Br)cc23)c(F)c1` [Example 73, 4-{[(6-Bromo-3-fluoro-2-phenylquinolin-4-yl)carbonyl]amino}-3-fluorobenzoic acid], the pIC50 in assay [2] is 7.01.

For the molecule `COc1c(-c2ccccc2)nc2ccc(Br)cc2c1C(=O)Nc1ccc(C(=O)O)cc1F` [Example 74, 4-{[(6-Bromo-3-methoxy-2-phenylquinolin-4-yl)carbonyl]amino}-3-fluorobenzoic acid], the pIC50 in assay [1] was 6.66.

Take `O=C(O)c1ccc(NC(=O)c2c(Cl)c(-c3ccccc3)nc3ccc(I)cc23)c(F)c1` [Example 75, 4-{[(3-Chloro-6-iodo-2-phenylquinolin-4-yl)carbonyl]amino}-3-fluorobenzoic acid]: in assay [1], the pIC50 was 8.05.

As for `O=C(O)c1ccc(NC(=O)c2c(Cl)c(-c3ccccc3)nc3ccc(Br)cc23)c(F)c1` [Example 76, 4-{[(6-Bromo-3-chloro-2-phenylquinolin-4-yl)carbonyl]amino}-3-fluorobenzoic acid], in assay [1], the pIC50 was 7.77.

As to `O=C(O)c1ccc(NC(=O)c2c(C3CC3)c(-c3ccccc3)nc3ccc(Br)cc23)c(F)c1` [Example 77, 4-{[(6-Bromo-3-cyclopropyl-2-phenylquinolin-4-yl)carbonyl]amino}-3-fluorobenzoic acid], in assay [1], the pIC50 was 7.57.

With `Cc1c(-c2ccccc2)nc2c(C)cc(Br)cc2c1C(=O)Nc1ccc(C(=O)O)cc1F` [Example 78, 4-{[(6-Bromo-3,8-dimethyl-2-phenylquinolin-4-yl)carbonyl]amino}-3-fluorobenzoic acid], the negative-log IC50 (pIC50) in assay [1] is 6.81.
